“Also recorded” adds a separate entry of the source. Like-named read-outs stand apart in the source and are kept apart here.
Assays:
[1] = system: rat mesenchymal stem cells; test: Assay 1: adipogenesis, Oil Red O staining (transdifferentiation of fibroblast lineages into adipocytes); assay type: cell-based; settings: for adipogenic activity in Assay 1: Assay 1, Oil Red O, concentration not given; for adipogenesis quantified by Oil Red O staining, fold change relative to the negative control: three weeks
Experimental: Reagents: (1) 3-isobutyl-1-methylxanthine (IBMX) solution: 0.5M in DMSO; (2) Insulin Solution: 10 mg/mL recombinant human insulin; (3) Dexamethasone Solution in 10 mM in ethanol; (4) Oil Red O (0.36% in 60% isopropanol).
Adipogenesis Initiation Media: mesenchymal stem cell expansion media/0.5 mM IBMX/1 μM dexamethasone. Mesenchymal stem cell expansion media is commercially available from Millipore. The IBMX Solution was diluted 1:1000 and the Dexamethasone Solution was diluted 1:10,000 in expansion media containing antibiotics and antimycotics. The prepared media was stored at 4° C.
Adipogenesis Progression Media for positive control: mesenchymal stem cell expansion media/10 μg/mL insulin. The Insulin Solution was diluted 1:1000 in the expansion media and stored at 4° C.
Experimental Adipogenesis Progression Media: mesenchymal stem cell expansion media/1-100 μg/mL RHAMM antagonist peptides.
Adipogenesis Maintenance Media: mesenchymal stem cell expansion media containing antibiotics and antimycotics.
Negative Control Media: Dulbecco's Modified Eagle's Medium (DMEM)/10% normal calf serum.
Pre-adipocyte stem cells including bone marrow mesenchymal stem cells and fibroblasts were propagated using standard tissue culture methods. Cells were trypsinized to remove the cells from the substratum. The trypsin was neutralized and cells were counted using a hemocytometer. Cells were resuspended at 20,000 cells/mL in expansion media. 1 mL of cell suspension was plated per well of 48-well plate, with several wells left empty for blank well (blank control) staining.
Cells were incubated until they reached confluency. When cells were fully confluent, the expansion media was replaced with 0.5 mL of Adipogenesis Initiation Media. For negative controls (no insulin, no peptides), expansion media only was used at this step and for subsequent media changes. For all media changes, media was replaced as gently as possible to avoid disturbing the monolayer.
Cells were incubated in Adipogenesis Initiation Media for 72 hours at 37° C., 5% CO2. 0.5 mL media was then removed from each well, and replaced with 0.5 mL of either positive control or experimental Adipogenesis Progression Media per well. Cells were again incubated for 96 hours at 37° C., 5% CO2, after which time media was replaced every 48 hours with Adipogenesis Maintenance Media (0.5 mL of media was removed from each well and replaced with 0.5 mL Adipogenesis Maintenance Media per well). Media added to empty wells served as blank controls for blank well background staining. Cells were incubated in Adipogenesis Maintenance Medium for at least 96 hours at 37° C., 5% CO2 after which time media was replaced with Adipogenesis Maintenance Medium. Lipid droplets had appeared by the time Adipogenesis Maintenance Medium was initially added and continued to accumulate and increase in size for 7-14 days. Experiments were terminated between seven and fourteen days after the initial addition of Adipogenesis Maintenance Medium.
For quantification of Oil Red O staining, media was removed and cells were washed twice with PBS, using care to gently add the PBS. Cells were then fixed in 4% paraformaldehyde (0.5 mL/well) and incubated for 30 minutes. The fixation solution was then removed and wells were washed two times with 1 mL of phosphate buffered saline (PBS) and once with 1 mL Milli-Q water. 0.25 mL Oil Red O solution was added per well of 48-well plate, including to the wells lacking cells, but containing media. Cells were incubated for 15 minutes at room temperature. The staining solution was then removed and wells were washed two times with 1 mL of Milli-Q water and once with washing solution (63% isopropanol in water).
Adipogenesis was quantified using a spectrophotometer. 0.25 mL Dye Extraction Solution (isopropyl alcohol) was added per well, and the plate was set on an orbital shaker or platform rocker for 30 minutes. […]

adipogenesis [2] = test: Adipogenic activity of peptides and peptide fragments, assay not specified; assay type: cell-based; settings: assay not specified
Experimental: In the second approach, a series of truncations and alanine mutagenesis on peptide B were performed in order to identify the smallest active sequence. Fragments of peptide B were prepared and assayed for adipogenesis. First, fragments corresponding to the two halves of peptide B were prepared (KLKDENS (SEQ ID NO: 8) and SQLKSEVSK (SEQ ID NO: 13)).

[3] = system: human primary cells directly isolated from human subcutaneous fat or dermal tissue; test: Human primary cells isolated from subcutaneous fat or dermal tissue; assay type: cell-based
adipogenesis [4] = settings: earlier reports, WO 2014/082042 and background; cited from earlier work
dermis of aged rats = test: Rat dermal skin model of adipogenesis (injection into the dermis of aged rats); assay type: in vivo; settings: injected into the dermis of aged rats / rat skin

Substance	adipogenic activity in Assay 1 [1]	adipogenic activity (adipogenesis [2])	adipogenesis quantified by Oil Red O staining, fold change relative to the negative control ([1]; Assay 1, peptide 5 μg/ml)	adipogenesis quantified by Oil Red O staining, fold change relative to the negative control ([1]; Assay 1, peptide 50 μg/ml)	adipogenic activity in human primary cells [3]	adipogenic activity (adipogenesis [4])	adipogenic effects in rat skin (dermis of aged rats)	specific activity among the 9-mer, 7-mer and 6-mer fragments ([1]; Assay 1)
KLKDENSQLR (listed as Erinaceus europaeus)	promising results	–	–	–	–	–	–	–
KTRAHHV (listed as Paenibacillus polymyxa)	ablated adipogenic activity	–	–	–	–	–	–	–
KLKDENSQLK (listed as Homo sapiens)	exhibited activity	has adipogenic activity; also recorded: are adipogenic	significant increase in adipogenesis	significant increase in adipogenesis	–	–	–	–
KSEVSK (listed as Homo sapiens) [reference compound]	exhibit adipogenic activity	also found to be adipogenic	–	–	exhibited adipogenic activity	strongly adipogenic	induce large fat pads	highest specific activity
